Test system: NCI-H196 complex spheroids with HUVEC/MSC, growth % T/C
Test: Anticancer human tumor NCI-H196 cell line growth inhibition [Asc];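 note: spheroids exposed to compound for 7 days before measurement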;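 for viability, T/C: 100% = DMSO vehicle control wells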
Settings: for IC50: curve of first compound; for viability, T/C: stronger effect = lower value
Protocol: Multicellular complex tumor spheroid response to apoptosis pathway targeting inhibitors Alrizomadlin, Pelcitoclax, and Dasminapant in combination with a variety of drugs and investigational agents in selected tumor cell lines
The MDM2 inhibitor alrizomadlin, the Bcl-2/Bcl-xL inhibitor pelcitoclax, and the IAPs inhibitor dasminapant were evaluated both individually and in combination with standard of care and investigational anticancer small molecules within a complex spheroid model of solid tumors. . Complex spheroids include a stromal component modeled by human endothelial cells (HUVEC) and fibroblasts modeled by human mesenchymal stem cells (MSCs). The concentration ranges selected for each drug and investigational agent were based upon clinically achievable concentrations if the clinical Cmax of the agent was known.
Compounds. The drugs and investigational agents: alrizomadlin (APG-115; NSC831270), pelcitoclax (APG-1252; NSC835773), dasminapant (APG-1387;NSC834197), TAK-243 (NSC785004), copanlisib (NSC809693), olaparib (NSC753686), talazoparib (NSC767125), cobimetinib (NSC 768068), eltanexor (KPT-8602, NSC 794443), abemaciclib (NSC 768073), sotorasib (NSC818433), adagrasib (NSC 831453), MRTX-1133 (NSC 836407), Iadademestat (ORY1001, NSC 806812), and RMC-4630 (NSC839698), were obtained from the NCI Developmental Therapeutics Program Chemical Repository. The FDA-approved anticancer drug set is available from the Developmental Therapeutics Program at https://dtp.cancer.gov/organization/dscb/obtaining/available plates.htm. […] The stock solutions were prepared in dimethyl sulfoxide (DMSO, Sigma-Aldrich, St. Louis, MO, cat. D2650) at 800-fold the tested concentration and stored at -70 degrees C prior to their use. All drugs and investigational agents were tested over a range starting from a high concentration at or near the clinical Cmax and decreasing in half-log increments. If the clinical Cmax for an agent had not been determined, the highest concentration tested was 10 microM.
The patient-derived cancer (PDC) cell lines include five colon adenocarcinomas: 186277-243-T-J2-PDC, 616215-338-R-J1-PDC, 439559-082-T-J2-PDC, 463943-066-T-J2-PDC, and 519858-162-T-J1-PDC; three pancreatic carcinomas: 323965-272-R-J2-PDC, 521955-158-R6-J3-PDC, and 521955-158-R2-J5-PDC; two uterine sarcomas: 327498-152-R-J2-PDC and 993429-296-R-J1-PDC; two rhabdomyosarcomas: 755483-174-R-J1-PDC and 772245-204-R-J1-PDC; two soft tissue sarcomas: 126254-015-R-J1-PDC and 494315-158-R-J1-PDC; two malignant fibrous histiocytomas: 317291-083-R-J1-PDC and 596521-263-R-J1-PDC; two breast carcinomas: 171881-019-R-J1-PDC and 885512-296-R-J2-PDC; and one ovarian carcinoma: 6556581-035-R-J-PDC were obtained from the NCI PDMR, (https://pdmr.cancer.gov). The established cell lines HSSY-2 synovial sarcoma (RRID:CVCL 8719), SYO-1 synovial sarcoma (RRID:CVCL_7146), MPNST malignant peripheral neural sheath tumor were obtained from the Sloan Kettering Institute. The following established cell lines were purchased from the American Type Culture Collection (ATCC, Manassas, VA), Sor the received from the NCI repository:, PANC-1 pancreatic carcinoma (CRL-1469, RRID:CVCL_0480), OVCAR-5 ovarian carcinoma (RRID:CVCL_1628), OVCAR-8 ovarian carcinoma (RRID:CVCL_1629), , MCF-7 breast carcinoma (CRL-12584, RRID:CVCL_0031), MDA-MB-231 breast carcinoma (CRL-12532, RRID:CVCL_0062), NCI-H1876 small cell lung carcinoma (CRL-5902, RRID:CVCL_1503), NCI-H510A small cell lung carcinoma (HTB-184, RRID:CVCL_1565), NCI-H1417 (CRL-5869, RRID:CVCL_1469), and NCI-H196 small cell lung carcinoma (CRL-5823, RRID:CVCL_1509). Dr. Peter Houghton (Greehey Children's Cancer Research Institute, University of Texas Health Science Center, San Antonio, TX) provided Rh-18 rhabdomyosarcoma (RRID:CVCL_1659). Pooled donor human umbilical vein endothelial cells (HUVEC, Lonza, cat. CC-2519) and human mesenchymal stem cells (hMSC, Lonza, cat. PT-2501) were purchased from Lonza (Walkersville, MD).
Cell Culture. […]

[1] = second compound 0.03 µM, first compound 0.0316 µM
[2] = second compound 0.03 µM, first compound 0.1 µM
[3] = second compound 0.0949 µM, first compound 0.0316 µM
[4] = second compound 0.0949 µM, first compound 0.1 µM
[5] = second compound 0.3 µM, first compound 0.0316 µM
[6] = second compound 0.3 µM, first compound 0.1 µM
[7] = second compound 0.949 µM, first compound 0.0316 µM
[8] = second compound 0.949 µM, first compound 0.1 µM
[9] = second compound 3 µM, first compound 0.0316 µM
[10] = second compound 3 µM, first compound 0.1 µM

Structure (SMILES): Cn1ncnc1[C@H]1c2n[nH]c(=O)c3cc(F)cc(c23)N[C@@H]1c1ccc(F)cc1 + CCN1C(C(=O)NC23CCC(C(=O)O)(CC2)CC3)C(c2cccc(Cl)c2F)C2(C(=O)Nc3cc(Cl)ccc32)C12CCCCC2
- IC50 (second compound 0.03 µM): > 0.1 µM
- IC50 (second compound 0.0949 µM): > 0.1 µM
- IC50 (second compound 0.3 µM): > 0.1 µM
- IC50 (second compound 0.949 µM): > 0.1 µM
- IC50 (second compound 3 µM): > 0.1 µM
- viability, T/C (second compound 0.03 µM, first compound 0.000316 µM): 107%
- viability, T/C (second compound 0.03 µM, first compound 0.001 µM): 109%
- viability, T/C (second compound 0.03 µM, first compound 0.00316 µM): 107%
- viability, T/C (second compound 0.03 µM, first compound 0.01 µM): 108%
- viability, T/C [1]: 107%
- viability, T/C [2]: 104%
- viability, T/C (second compound 0.0949 µM, first compound 0.000316 µM): 118%
- viability, T/C (second compound 0.0949 µM, first compound 0.001 µM): 125%
- viability, T/C (second compound 0.0949 µM, first compound 0.00316 µM): 114%
- viability, T/C (second compound 0.0949 µM, first compound 0.01 µM): 102%
- viability, T/C [3]: 114%
- viability, T/C [4]: 109%
- viability, T/C (second compound 0.3 µM, first compound 0.000316 µM): 118%
- viability, T/C (second compound 0.3 µM, first compound 0.001 µM): 128%
- viability, T/C (second compound 0.3 µM, first compound 0.00316 µM): 119%
- viability, T/C (second compound 0.3 µM, first compound 0.01 µM): 121%
- viability, T/C [5]: 113%
- viability, T/C [6]: 112%
- viability, T/C (second compound 0.949 µM, first compound 0.000316 µM): 139%
- viability, T/C (second compound 0.949 µM, first compound 0.001 µM): 138%
- viability, T/C (second compound 0.949 µM, first compound 0.00316 µM): 120%
- viability, T/C (second compound 0.949 µM, first compound 0.01 µM): 118%
- viability, T/C [7]: 112%
- viability, T/C [8]: 126%
- viability, T/C (second compound 3 µM, first compound 0.000316 µM): 124%
- viability, T/C (second compound 3 µM, first compound 0.001 µM): 136%
- viability, T/C (second compound 3 µM, first compound 0.00316 µM): 132%
- viability, T/C (second compound 3 µM, first compound 0.01 µM): 129%
- viability, T/C [9]: 131%
- viability, T/C [10]: 121%

Structure (SMILES): O=C(c1cc(Cc2n[nH]c(=O)c3ccccc23)ccc1F)N1CCN(C(=O)C2CC2)CC1 + CCN1C(C(=O)NC23CCC(C(=O)O)(CC2)CC3)C(c2cccc(Cl)c2F)C2(C(=O)Nc3cc(Cl)ccc32)C12CCCCC2
- IC50 (second compound 0.03 µM): > 10 µM
- IC50 (second compound 0.0949 µM): > 10 µM
- IC50 (second compound 0.3 µM): > 10 µM
- IC50 (second compound 0.949 µM): > 10 µM
- IC50 (second compound 3 µM): > 10 µM
- viability, T/C [1]: 102%
- viability, T/C [2]: 116%
- viability, T/C (second compound 0.03 µM, first compound 0.316 µM): 95.9%
- viability, T/C (second compound 0.03 µM, first compound 1 µM): 100%
- viability, T/C (second compound 0.03 µM, first compound 3.16 µM): 104%
- viability, T/C (second compound 0.03 µM, first compound 10 µM): 97.9%
- viability, T/C [3]: 108%
- viability, T/C [4]: 105%
- viability, T/C (second compound 0.0949 µM, first compound 0.316 µM): 110%
- viability, T/C (second compound 0.0949 µM, first compound 1 µM): 100%
- viability, T/C (second compound 0.0949 µM, first compound 3.16 µM): 102%
- viability, T/C (second compound 0.0949 µM, first compound 10 µM): 104%
- viability, T/C [5]: 106%
- viability, T/C [6]: 107%
- viability, T/C (second compound 0.3 µM, first compound 0.316 µM): 123%
- viability, T/C (second compound 0.3 µM, first compound 1 µM): 116%
- viability, T/C (second compound 0.3 µM, first compound 3.16 µM): 107%
- viability, T/C (second compound 0.3 µM, first compound 10 µM): 100%
- viability, T/C [7]: 120%
- viability, T/C [8]: 124%
- viability, T/C (second compound 0.949 µM, first compound 0.316 µM): 121%
- viability, T/C (second compound 0.949 µM, first compound 1 µM): 121%
- viability, T/C (second compound 0.949 µM, first compound 3.16 µM): 121%
- viability, T/C (second compound 0.949 µM, first compound 10 µM): 105%
- viability, T/C [9]: 116%
- viability, T/C [10]: 120%
- viability, T/C (second compound 3 µM, first compound 0.316 µM): 108%
- viability, T/C (second compound 3 µM, first compound 1 µM): 110%
- viability, T/C (second compound 3 µM, first compound 3.16 µM): 128%
- viability, T/C (second compound 3 µM, first compound 10 µM): 110%
